# From patent US20190119282A1, “IMIDAZOPYRIDAZINES USEFUL AS INHIBITORS OF THE PAR-2 SIGNALING PATHWAY” (Vertex Pharmaceuticals Incorporated, priority 2013, published 2019)
# Columns and labels:
# [1] = molecular target: T1, PAR2 (HT-29 cells, SLIGKV activation) (Homo sapiens, UniProt P55085); assay: Ca FLIPR TETRA assay, ANTAGONIST mode, stimulation with 8 μM SLIGKV; format: cell-based; details: HT-29 cells, stimulation with 8 μM SLIGKV
# T1 construct: host or cells: HT-29 cells
# T1 sequence (P55085 26-397): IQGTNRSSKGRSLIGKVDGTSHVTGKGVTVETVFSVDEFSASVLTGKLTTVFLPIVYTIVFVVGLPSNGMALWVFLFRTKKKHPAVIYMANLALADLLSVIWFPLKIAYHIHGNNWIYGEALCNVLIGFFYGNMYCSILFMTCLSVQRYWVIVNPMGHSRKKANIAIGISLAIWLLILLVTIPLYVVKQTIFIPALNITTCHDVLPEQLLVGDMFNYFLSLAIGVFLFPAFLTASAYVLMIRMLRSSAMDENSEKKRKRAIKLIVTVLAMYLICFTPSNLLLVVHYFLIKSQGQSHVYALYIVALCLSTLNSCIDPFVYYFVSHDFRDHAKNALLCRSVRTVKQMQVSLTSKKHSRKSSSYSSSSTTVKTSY
# Method in brief: (§1)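 HT-29 cells grown overnight in 1% FBS McCoy's medium were loaded with calcium 5 dye (45 min 37 °C, 15 min r.t.). Compounds were added and Ca2+ read for direct activation, then after 30 min at r.t. cells were stimulated with 8 μM SLIGKV, 1 U/mL thrombin, 3.1 U/mL trypsin or 0.6 μM UTP (final).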
# [2] = molecular target: T2, PAR2 (HT-29 cells, trypsin activation) (Homo sapiens, UniProt P55085); assay: Ca FLIPR TETRA assay, ANTAGONIST mode, stimulation with 3.1 U/mL trypsin; format: cell-based; details: HT-29 cells, stimulation with 3.1 U/mL trypsin
# T2 construct: host or cells: HT-29 cells
# T2 sequence (P55085 26-397): T1 sequence (P55085 26-397)
# Method in brief: as §1
# [3] = system: Thrombin-stimulated Ca2+ response in HT-29 cells; assay: Ca FLIPR TETRA assay, ANTAGONIST mode, stimulation with 1 U/mL Thrombin; format: cell-based, human; details: Homo sapiens, HT-29 cells, stimulation with 1 U/mL Thrombin
# Method in brief: as §1
# [4] = system: UTP-stimulated Ca2+ response in HT-29 cells; assay: Ca FLIPR TETRA assay, ANTAGONIST mode, stimulation with 0.6 μM UTP; format: cell-based, human; details: Homo sapiens, HT-29 cells, stimulation with 0.6 μM UTP
# Method in brief: as §1
Compound,IC50 ([1]; antagonist mode) [nM],IC50 ([2]; antagonist mode) [nM],IC50 ([3]; antagonist mode) [nM],IC50 ([4]; antagonist mode) [nM],IC50 [1] [nM],IC50 [2] [nM],IC50 [3] [nM],IC50 [4] [nM]
CC(C)(C)c1cc(-c2ccc(Cl)cc2)nn2cc(C(=O)N3CCN(C(=O)C4CC(C(=O)O)C4)CC3(C)C)nc12 (centres unmarked) [Compound I-489],1,0.9,8600,4100,–,–,–,–
"CC1(C)CN(C(=O)C2(O)CCC2)CCN1C(=O)c1cn2nc(-c3ccc(F)cc3)cc(C3CC3)c2n1 [Compound I-21, [8-cyclopropyl-6-(4-fluorophenyl)imidazo[1,2-b]pyridazin-2-yl]-[4-(1-hydroxycyclobutanecarbonyl)-2,2-dimethyl-piperazin-1-yl]methanone]",–,–,–,–,19,29,> 50000,64000
CC(C)(C)c1cc(-c2ccc(Cl)cc2)nn2cc(C(=O)N3CCN(C(=O)c4ccn[nH]4)CC3(C)C)nc12 [Compound I-435],0.8,0.7,> 1000,> 1000,–,–,–,–
Cc1ccc(-c2cc(C(C)(C)C)c3nc(C(=O)N4CCN(C(=O)c5nc(C)n[nH]5)CC4(C)C)cn3n2)cc1 [Compound I-397],0.6,0.6,> 1000,> 1000,–,–,–,–
CC(C)c1cc(-c2ccc(F)cc2)nn2cc(C(=O)N3CCN(C(=O)CC4CCOCC4)[C@@H](C)C3)nc12 [Compound I-141],–,–,–,–,16,130,19000,24000
CC(C)c1cc(-c2ccc(Cl)cc2)nn2cc(C(=O)N3CCN(C(=O)[C@H]4C[C@@](C)(O)C4)CC3(C)C)nc12 [Compound I-541],1,1.5,> 1000,> 1000,–,–,–,–
Cc1nnc(C(=O)N2CCN(C(=O)c3cn4nc(-c5ccc(C)c(F)c5)cc(C(C)(C)C)c4n3)C(C)(C)C2)o1 [Compound I-432],1.9,2.1,> 1000,> 1000,–,–,–,–
Cc1ncc(C(=O)N2CCN(C(=O)c3cn4nc(-c5ccc(C(F)(F)F)cc5)cc(C(C)(C)C)c4n3)C(C)(C)C2)[nH]1 [Compound I-423],1.7,2.2,> 1000,> 1000,–,–,–,–
CC(C)(C)c1cc(-c2ccc(F)cc2F)nn2cc(C(=O)N3CCNC(=O)C3(C)C)nc12 [Compound I-472],6.2,13,> 1000,820,–,–,–,–
Cc1noc(C)c1CCC(=O)N1CCN(C(=O)c2cn3nc(-c4ccc(F)cc4)cc(C(C)C)c3n2)C[C@@H]1C [Compound I-136],–,–,–,–,7,34,> 5000,7700
CC(C)c1cc(-c2ccc(F)c(Cl)c2)nn2cc(C(=O)N3CCN(C(=O)[C@H]4C[C@@H](O)C4)CC3(C)C)nc12 [Compound I-498],5.6,7.4,> 1000,> 1000,–,–,–,–
COC(=O)[C@H]1CC[C@H](C(=O)N2CCN(C(=O)c3cn4nc(-c5ccc(Cl)cc5)cc(C(C)C)c4n3)C(C)(C)C2)CC1 [Compound I-546],1.8,1.6,> 1000,> 1000,–,–,–,–
CC(C)c1cc(-c2ccccc2F)nn2cc(C(=O)N3CCNC(=O)C3(C)C)nc12 [Compound I-479],155,250,> 1000,> 1000,–,–,–,–
CC(C)c1cc(-c2ccc(F)cc2)nn2cc(C(=O)N3CCN(C(=O)C(C)(C)N)[C@@H](C)C3)nc12 [Compound I-157],–,–,–,–,5700,14000,40000,38000
CC(C)c1cc(-c2ccc(F)cc2)nn2cc(C(=O)N3CCN(C(=O)C(C)(O)C(F)(F)F)CC3(C)C)nc12 (centres unmarked) [Compound I-313],15.2,11.4,> 1000,> 1000,–,–,–,–
CC(C)(C)c1cc(-c2ccc(F)cc2)nn2cc(C(=O)N3CCN(C(=O)[C@H]4C[C@@](C)(O)C4)CC3(C)C)nc12 [Compound I-319],0.4,0.6,760,950,–,–,–,–
CC(C)c1cc(-c2ccc(F)cc2)nn2cc(C(=O)N3CCN(C(=O)CC(C)(C)C)[C@@H](C)C3)nc12 [Compound I-130],–,–,–,–,2,6,4500,5000
CC(C)c1cc(-c2ccc(F)cc2)nn2cc(C(=O)N3CCN(C(=O)c4ncc[nH]4)CC3(C)C)nc12 [Compound I-238],2.5,8.5,> 1000,> 1000,–,–,–,–

Compound,IC50 ([1]; antagonist mode) [nM],IC50 ([2]; antagonist mode) [nM],IC50 ([3]; antagonist mode) [nM],IC50 ([4]; antagonist mode) [nM],IC50 [1] [nM],IC50 [2] [nM],IC50 [3] [nM],IC50 [4] [nM]
Cc1cc(C(=O)N2CCN(C(=O)c3cn4nc(-c5ccc(C)c(F)c5)cc(C(C)(C)C)c4n3)C(C)(C)C2)[nH]n1 [Compound I-427],0.5,0.7,> 1000,> 1000,–,–,–,–
Cc1nnc(C(=O)N2CCN(C(=O)c3cn4nc(-c5ccc(C(F)F)cc5)cc(C(C)C)c4n3)C(C)(C)C2)o1 [Compound I-299],37.3,53,> 1000,> 1000,–,–,–,–
CC(C)c1cc(-c2ccc(F)c(Cl)c2)nn2cc(C(=O)N3CCNC(=O)C3(C)C)nc12 [Compound I-363],5.4,2.8,> 1000,> 1000,–,–,–,–
Cc1ccc(-c2cc(C(C)C)c3nc(C(=O)N4CCN(C(=O)C5CC(C)(O)C5)CC4(C)C)cn3n2)cc1F (centres unmarked) [Compound I-338],2.2,1.6,> 1000,> 1000,–,–,–,–
CC(C)(F)c1cc(-c2ccc(F)cc2)nn2cc(C(=O)N3CCNC(=O)C3(C)C)nc12 [Compound I-362],13,31,> 1000,> 1000,–,–,–,–
"C[C@H]1CN(C(=O)c2cn3nc(-c4ccc(F)cc4)cc(C(F)(F)F)c3n2)CCN1C(=O)OC(C)(C)C [Compound I-1, tert-Butyl (2S)-4-[6-(4-fluorophenyl)-8-(trifluoromethyl)imidazo[1,2-b]pyridazine-2-carbonyl]-2-methyl-piperazine-1-carboxylate]",–,–,–,–,280,1000,3600,3100
Cn1nnnc1N1CCN(C(=O)c2cn3nc(-c4ccc(F)cc4)cc(C(C)(C)C)c3n2)C(C)(C)C1=O [Compound I-248],56.6,58.5,> 1000,> 1000,–,–,–,–
CC(C)c1cc(-c2ccc(F)cc2)nn2cc(C(=O)N3CCN(C(=O)Cc4cccnc4)[C@@H](C)C3)nc12 [Compound I-142],–,–,–,–,35,280,26000,24000
CC(C)c1cc(-c2ccc(F)c(F)c2)nn2cc(C(=O)N3CCN(C(=O)[C@H]4C[C@](O)(C(F)(F)F)C4)CC3(C)C)nc12 [Compound I-257],0.1,0.2,> 100,> 100,–,–,–,–
COC(=O)C1(C(=O)N2CCN(C(=O)c3cn4nc(-c5ccc(F)cc5)cc(C(C)(C)C)c4n3)C(C)(C)C2)CC1 [Compound I-527],4.3,3,> 1000,> 1000,–,–,–,–
CC1(C)CN(C(=O)c2ccn[nH]2)CCN1C(=O)c1cn2nc(-c3ccc(F)cc3)cc(C(F)(F)F)c2n1 [Compound I-271],13.3,30.3,> 1000,> 1000,–,–,–,–
"C=CC(=O)N1CCN(C(=O)c2cn3nc(-c4ccc(F)cc4)cc(C(C)C)c3n2)C[C@@H]1C [Compound I-17, 1-[(2S)-4-[6-(4-Fluorophenyl)-8-isopropyl-imidazo[1,2-b]pyridazine-2-carbonyl]-2-methyl-piperazin-1-yl]prop-2-en-1-one]",–,–,–,–,41,780,20000,19000
C[C@H]1CN(C(=O)c2cn3nc(-c4ccc(F)cc4)cc(C(F)(F)F)c3n2)CCN1C(=O)OCC(C)(C)C [Compound I-82],–,–,–,–,22,100,14000,22000
CCc1cc(-c2ccc(F)cc2)nn2cc(C(=O)N3CCN(C(=O)Cc4ccncc4)[C@@H](C)C3)nc12 [Compound I-163],–,–,–,–,640,1700,12000,13000
CCC(C)(O)CC(=O)N1CCN(C(=O)c2cn3nc(-c4ccc(F)cc4)cc(C(C)C)c3n2)C[C@@H]1C (some centres unmarked) [Compound I-146],–,–,–,–,16,1000,20000,19000
C[C@H]1CN(c2cc(-c3ccc(F)cc3)nn3cc(C(=O)N4CCNC(=O)C4(C)C)nc23)C[C@H](C)O1 [Compound I-183],15,33.6,840,810,–,–,–,–
CC(C)c1cc(-c2ccc(F)cc2)nn2cc(C(=O)N3CCN(C(=O)CC(C)(C)O)[C@@H](C)C3)nc12 [Compound I-131],–,–,–,–,67,650,33000,32000
